Results on four molecules are retold here after paper PMC12063043, “Exploring Tyramine's Role in the Formation of Supramolecular Adducts with Nonsteroidal Anti‐Inflammatory Drugs” (Chemistry (Weinheim an Der Bergstrasse, Germany), 2025).

Data set [1] is described as follows: pKa of the co-former TYA and the APIs, and ΔpKa rule. In kind it is physicochemical. The note with it: heading: ΔpKa [= pKa – pKa]; for the adduct of the API (acid) with TYA (base).
Data set [2] is described as follows: Aqueous solubility tests by solution 1H NMR. The note with it: for solubility at 3 days: deionized water, water, thermodynamic from solid.
The conditions of data set [3]: ref PubChem; cited from earlier work.

≈ marks a conversion by molar mass, not a printed value.

The solubility is the dissolved amount per volume that the medium holds. Molecule `CC(C(=O)O)c1ccc(-c2ccccc2)c(F)c1` (racemic) [FLU, (±)‐2‐(2‐fluorobiphenyl‐4‐yl)propionic acid] yielded a ΔpKa in data set [1] of 5.44. In data set [2], this molecule yielded a solubility at 3 days of 19 ± 2 µg/mL (≈ 77.8 µM).
`NCCc1ccc(O)cc1` [TYA, 4‐(2‐aminoethyl)phenol]: the pKa in data set [3] was 9.66^[ ^a ^].
The term Aqueous solubility denotes the concentration that dissolves in the medium under given conditions. Read a low Aqueous solubility as a poorly soluble substance. `NCCc1ccc(O)cc1.O=C(O)c1cc(-c2ccc(F)cc2F)ccc1O` [DIF-TYA Form II]: the “Increase in aqueous solubility of adduct versus pure API” value in data set [2] (aqueous solution, adduct versus pure API) is on record as 17 fold. The molecule also had an Aqueous solubility in data set [2] (deionized H2O, stirred 3 days, filtered, 1H NMR at 298 K with TSP internal standard, concentration of the drug in solution, average of three measurements ± standard deviation) of 473 ± 79 µg/mL.
Consider `O=C(O)c1cc(-c2ccc(F)cc2F)ccc1O` [DIF, 2′,4′‐difluoro‐4‐hydroxy‐[1,1′‐biphenyl]‐3‐carboxylic acid], for which the ΔpKa in data set [1] amounted to 6.36. In data set [2], this molecule came in with a solubility at 3 days of 28 ± 2 µg/mL (≈ 112 µM).
